Experimental data from patent US8133847B2, “Pyrido[2,3-B]pyrazine derivatives useful as herbicidal compounds” (Syngenta Limited, priority 2006, dated 2012).

Assays:
Format in all cases: in vivo
[1] = tested on: Amaranthus retroflexus (AMARE); test: Example B2 herbicidal action, post-emergence, pots in glasshouse; details: Application post-emergence, evaluated after 13 days (100=total damage to plant; 0=no damage to plant)
Description: (§1) Seeds of a variety of test species were sown in standard soil in pots. After 8 days cultivation (post-emergence) under controlled conditions in a glasshouse (at 24/16° C., day/night; 14 hours light; 65% humidity), the plants were sprayed with an aqueous spray solution derived from the formulation of the technical active ingredient in acetone/water (50:50) solution containing 0.5% Tween 20 (polyoxyethylene sorbitan monolaurate, CAS RN 9005-64-5). The test plants were then grown in a glasshouse under controlled conditions in a glasshouse (at 24/16° C., day/night; 14 hours light; 65% humidity) and watered twice daily. After 13 days, the test was evaluated (100=total damage to plant; 0=no damage to plant).

Solanum nigrum (SOLNI) [2] = test: as above; details: Application post-emergence, evaluated after 13 days
Description: as §1

[3] = tested on: Ipomea hederaceae (IPOHE); test: as above; details: Application post-emergence, evaluated after 13 days (100=total damage to plant; 0=no damage to plant)
Description: as §1

Setaria faberi (SETFA) = test: as above; details: Application post-emergence, evaluated after 13 days (100=total damage to plant; 0=no damage to plant)
Description: as §1

[4] = tested on: Echinochloa crusgalli (ECHCG); test: as above; details: Application post-emergence, evaluated after 13 days (100=total damage to plant; 0=no damage to plant)
Description: as §1

[5] = tested on: Amaranthus retroflexus (AMARE); test: Example B1 herbicidal action, post-emergence, 96-cell seed trays, climatic chamber; details: Application post-emergence, 1000 mg/l spray equivalent to 1000 g/ha, evaluated after 9 days
In short: (§2)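 Plants at 8–9 days post-sowing (23/17 °C, 13 h light, 50–60% humidity) sprayed post-emergence with 1000 mg/l active ingredient in 10% DMSO, equivalent to 1000 g/ha. Grown on at 24/19 °C, watered twice daily; damage scored after 9 days (0 = none, 100 = total).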

Solanum nigrum (SOLNI) [6] = test: as above; details: Application post-emergence, 1000 mg/l spray equivalent to 1000 g/ha, evaluated after 9 days (100=total damage to plant, 0=no damage to plant)
In short: as §2

Stellaria media (STEME) = test: as above; details: Application post-emergence, 1000 mg/l spray equivalent to 1000 g/ha, evaluated after 9 days (100=total damage to plant, 0=no damage to plant)
In short: as §2

[7] = tested on: Nasturtium officinale (NAAOF); test: as above; set-up: scale not given here; details: Application post-emergence, 1000 mg/l spray equivalent to 1000 g/ha, evaluated after 9 days (100=total damage to plant, 0=no damage to plant)
In short: as §2

| Structure (SMILES) | damage to plant, Amaranthus retroflexus (AMARE) [1] | damage to plant, Solanum nigrum (SOLNI) (Solanum nigrum (SOLNI) [2]) | damage to plant, Ipomea hederaceae (IPOHE) [3] | damage to plant, Setaria faberi (SETFA) (Setaria faberi (SETFA)) | damage to plant, Echinochloa crusgalli (ECHCG) [4] | damage to plant, Amaranthus retroflexus (AMARE) [5] | damage to plant, Solanum nigrum (SOLNI) (Solanum nigrum (SOLNI) [6]) | damage to plant, Stellaria media (STEME) (Stellaria media (STEME)) | damage to plant, Nasturtium officinale (NAAOF) [7] |
| --- | --- | --- | --- | --- | --- | --- | --- | --- | --- |
| O=c1[nH]c2nccnc2c(O)c1-c1ccccc1Br [Compound A24] | 10 | 9 | 6 | 6 | 4 |  |  |  |  |
| O=c1[nH]c2nccnc2c(O)c1-c1c(Cl)cc(OC(F)(F)F)cc1Cl [Compound A36] | 7 | 8 | 0 | 8 | 10 |  |  |  |  |
| Cc1ccc(C)c(-c2c(O)c3nccnc3[nH]c2=O)c1 [Compound A37] | 4 | 6 | 1 | 7 | 7 |  |  |  |  |
| O=c1[nH]c2nccnc2c(O)c1-c1cc(F)ccc1Cl [Compound A38] | 10 | 9 | 0 | 9 | 8 |  |  |  |  |
| O=c1[nH]c2nccnc2c(O)c1-c1cc(F)c(Cl)cc1Cl [Compound A39] | 8 | 6 | 0 | 7 | 8 |  |  |  |  |
| O=c1[nH]c2nccnc2c(O)c1-c1c(F)ccc(Br)c1Cl [Compound A40] | 9 | 8 | 0 | 9 | 5 |  |  |  |  |
| CC(C)(C)C(=O)Oc1c(-c2c(Cl)cc(OC(F)(F)F)cc2Cl)c(=O)[nH]c2nccnc12 [Compound B42] | 0 | 5 | 0 | 8 | 1 |  |  |  |  |
| CC(C)(C)C(=O)Oc1c(-c2ccc(C(F)(F)F)cc2[N+](=O)[O-])c(=O)[nH]c2nccnc12 [Compound B44] | 7 | 3 |  | 0 | 3 |  |  |  |  |
| CC(C)C(=O)Oc1c(-c2cc(F)ccc2Cl)c(=O)[nH]c2nccnc12 [Compound B45] | 4 | 9 | 0 | 8 | 8 |  |  |  |  |
| CC(C)(C)C(=O)Oc1c(-c2cc(F)ccc2Cl)c(=O)[nH]c2nccnc12 [Compound B46] | 10 | 10 | 9 | 6 | 4 |  |  |  |  |
| CC(C)C(=O)Oc1c(-c2cc(F)c(Cl)cc2Cl)c(=O)[nH]c2nccnc12 [Compound B47] | 2 | 3 | 1 | 4 | 3 |  |  |  |  |
| CC(C)(C)C(=O)Oc1c(-c2c(F)ccc(Br)c2Cl)c(=O)[nH]c2nccnc12 [Compound B49] | 10 | 9 | 8 | 7 | 3 |  |  |  |  |
| CC(C)C(=O)Oc1c(-c2c(F)ccc(Br)c2Cl)c(=O)[nH]c2nccnc12 [Compound B50] | 10 | 9 | 8 | 8 | 8 |  |  |  |  |
| CC(C)(C)C(=O)Oc1c(-c2ccccc2Br)c(=O)[nH]c2nccnc12 [Compound B51] | 3 | 7 | 0 | 6 | 3 |  |  |  |  |
| CC(C)(C)C(=O)Oc1c(-c2ccccc2OC(F)F)c(=O)[nH]c2nccnc12 [Compound B59] | 0 | 2 | 3 | 4 | 0 |  |  |  |  |
| CCn1c(=O)c(-c2c(Cl)cc(C(F)(F)F)cc2Cl)c(OC(=O)C(C)(C)C)c2nccnc21 [Compound C129] | 10 | 10 | 9 | 6 | 4 |  |  |  |  |
| CC(C)(C)C(=O)Oc1c(-c2c(F)ccc(F)c2Cl)c(=O)n(CC2CCC2)c2nccnc12 [Compound C131] | 0 | 2 | 0 | 0 | 0 |  |  |  |  |
| Cc1ccc(C)c(-c2c(OC(=O)C(C)C)c3nccnc3n(C)c2=O)c1 [Compound C133] | 9 | 9 | 3 | 4 | 6 |  |  |  |  |
| Cn1c(=O)c(-c2ccccc2I)c(OC(=O)C(C)(C)C)c2nccnc21 [Compound C136] | 9 | 10 |  | 8 | 9 |  |  |  |  |
| CC#CCOC(=O)Oc1c(-c2c(Cl)cccc2Cl)c(=O)n(C)c2nccnc12 [Compound C178] |  |  |  |  |  | 4 | 2 | 7 | 6 |
| CCn1c(=O)c(-c2ccccc2Cl)c(OC(C)=O)c2nccnc21 [Compound C185] |  |  |  |  |  | 4 | 4 | 10 | 8 |
| CCn1c(=O)c(-c2c(F)ccc(F)c2Cl)c(O)c2nccnc21 [Compound D2] |  |  |  |  |  | 6 | 8 | 8 | 8 |
| Cn1c(=O)c(-c2ccc(Cl)cc2Cl)c(O)c2nccnc21 [Compound D3] |  |  |  |  |  | 0 | 8 | 8 | 8 |
| Cn1c(=O)c(-c2c(F)ccc(F)c2Cl)c(O)c2c1ncc[n+]2[O-] [Compound D6, 7-(2-chloro-3,6-difluorophenyl)-8-hydroxy-5-methyl-1-oxy-5H-pyrido[2,3-b]pyrazin-6-one] |  |  |  |  |  | 5 | 3 | 6 | 7 |
